Test results taken from patent US6806359B1, “Hormone receptor compositions and methods” (The Salk Institute for Biological Studies, priority 1986, dated 2004).

Assays:
[1] = system: rat GH 5′-flanking sequences in rat pituitary GC2 cells; assay: T3 responsiveness of rat GH 5′-flanking sequence-CAT gene fusions transfected into GC2 cells; assay type: cell-based; conditions: for stimulation of CAT activity: GH −235 to −45 fused to tk promoter
Excerpt: […]. To overcome this problem, a rat prolactin enhancer element^11 was fused proximal to fragments of the rat GH gene containing 181 and 110 bp of 5′ flanking information. […].
To assay 3′ deletions, fragments of the rat Gh gene were fused to the herpes simplex virus thymidine kinase (HSV tk) promoter. A fragment of the Gh gene extending from position −235 to position −45 from the CAP site produced 2.5-and 2.3-fold stimulations of CAT activity when fused to the tk promoter in native and inverse orientation, respectively (FIG. 57). […]. […].
Thyroid hormone responsiveness of various gene fusions containing rat GH 5′-flanking sequences. FIG. 56, Responsiveness of 5′ and 3′ deletions of the rat GH gene. 5′-deleted fragments of the rat GH gene were fused to the CAT gene in a pSV2CAT-based vector^18, in which the SV40 origin of replication and promoter were removed. […]. The illustrated 3′-deleted fragments were fused to a tk promoter fragment, extending from position −197 to position +54 and placed proximal to the CAT gene in the same vector. […]. Error limits represent the standard error of the mean. Each construction was assayed two to five times. An represents SV40 polyadenylation sites. FIG. 58, Messenger RNA transcription initiation site analysis. The diagram indicates the […] primer complimentary to nucleotides 67 to 89 of the CAT coding sequence used to determine the CAP site of transcripts of plasmids containing the tk promoter. GC cells were transfected with test plasmids and hormone treated as described for the experiments presented in panels a and b. Primer extension analysis was performed on 50 micrograms total RNA. Lanes A and B represent the extension product from cells transfected with a plasmid containing the GH fragment extending from positions 235 to 45 from the CAP site fused to the tk promoter. Lanes C and D represent the extension product from cells transfected with a plasmid containing the tk promoter alone. No extension products were observed. […].
Fusions containing the rat prolactin enhancer were made by excising this fragment (corresponding to rat prolactin sequence nucleotide positions 1831-1530) from plasmid pPSS^11 and inserting it in reverse orientation proximal to the 5′ deletions of the growth hormone element. Fusions containing the HSV tk promoter were made by excising fragments of the GH enhancer from the plasmid GPO (ref. 11) and inserting them into the BamHI and SalI sites of a pSV2CAT-based expression vectors proximal to the tk promoter at positions −197 to +54. Alternatively, the GH enhancer was placed proximal to the promoter at positions −107 to +54 in a pUC8-based vector^20 by insertion into the BamHI and SalI polylinker sites. Site-directed mutagenesis of the GH enhancer element was performed by inserting the fragment from 235-45 bp from the CAP site into the BamHI and SalI sites of M13 mp18. A 21-base oligonucleotide was synthesized which corresponded to antisense GH nucleotides −188 to −157, in which nucleotides −177 to −166 were deleted and replaced by an A nucleotide. This oligonucleotide was used to delete bases −177 to −166 in the GH enhancer using the procedure of Kunkel^21. CAT activity was determined by radioassay of methylated chloramphenicol derivatives after thin layer chromatography^19. Primer extension was by the method of Elsholtz, et al.^12

[2] = system: rat GH 5′-flanking sequences in rat pituitary GC2 cells; assay: as above; assay type: cell-based; conditions: 5′ deletion to −107 with rat prolactin enhancer
[3] = system: hGR; assay: hGR functional assay: CAT activity in CV-1 cells cotransfected with pRShGR alpha (or mutant) and pMTVCAT; assay type: cell-based, human; conditions: percentage of wild-type hGR activity; CV-1 cells cultured 2 days with 10 nM DEX
Excerpt: The assay system and strategy used to study the expression of functional hGR from the cloned cDNA (See Experimental Section I) is shown in FIG. 11. In these experiments, a glucocorticoid-responsive promoter/enhancer element linked to a reporter gene was introduced into a receptor-negative cell. […] For our assay, we chose to use the MTV LTR fused to the sequence coding for chloramphenicol acetyltransferase (CAT) (EC2.3.1.28). […] Cotransfection of pMTVCAT (or pGMCAT) with a receptor expression plasmid provides functional receptors that allow induction of CAT activity upon treatment of the transfected cells with glucocorticoid hormone. In addition, biochemical studies such as steroid binding activity and Western blot analysis of the expressed receptors can be performed simultaneously.
(§1) The cells are then cultured in the presence or absence of hormone. CV-1 cells were used to monitor induction of CAT activity, and COS cells were used to measure steroid-binding capacity and the expression of hGR protein.
CAT assays were performed as indicated in Experimental Procedures (See Section II. F.). C, chloramphenicol; AC, 3-acetylchloramphenicol.
The levels of CAT activity were plotted as percentages of the maximal response observe in a particular experiment.
Each plasmid preparation used for transfection was purified using two consecutive CsCl-EtBr equilibrium gradients. […]

[4] = system: hGR; assay: Steroid binding assay ([^3H]DEX) in cytosol of COS cells transfected with hGR or mutants; design: species or system human; conditions: steroid-binding capacity as percentage of wild-type hGR
Description: as §1
COS cells were lysed in hypotonic buffer containing 10 mM Tris-HCl (pH 7.5), 10 mM NaCl, 1 mM EDTA, 5 micrograms/ml antipain, 5 micrograms/ml leupeptin, and 0.5 mM PMSF by Dounce homogenization and centrifuged 10 min. at 15,000×g to yield the cytosolic fraction. Incubations were performed in hypotonic buffer adjusted to 100 mM NaCl and contained 100 micrograms of protein from the cytosolic fraction and 2×10^−8[^3H]DEX (Amersham, 95 Ci/mmol) in total volume of 200 microliters. Nonspecific binding was measured by the addition of 2×10^−6 unlabeled DEX. Reactions were carried out at 0° C. for 2 hr., followed by a 5 min. incubation with 20 microliters of 50% dextran-coated charcoal (10:1 activated charcoal:dextran) and centrifugation at 15,000×g for 2 min. at 4° C. Supernatants were counted by liquid scintillation methods in a Beckman LS-7800 liquid scintillation spectrophotometer. Each assay usually gave 2500-3000 cpm [^3H] labeled steroid; unlabeled DEX competed for 70% of this binding.

Compound | regulation of CAT expression by T3 ([1]; 5′ deletion to −235 of rat GH gene fused to CAT) [fold] | induction of CAT expression by T3 ([1]; 5′-deleted fragment to −181 with rat prolactin enhancer) [fold] | increase of correctly initiated CAT mRNA (primer extension) ([1]; 235-45 bp GH fragment fused to tk promoter, 10^−9M T3) | stimulation of CAT activity ([1]; inverse orientation) [fold] | stimulation of CAT activity ([1]; native orientation) [fold] | stimulation of CAT expression ([1]; construction G29TK) [fold] | stimulation of CAT expression (in words) ([1]; construction G293TK, three tandem repeats) | effect on CAT expression (in words) ([1]; mutant G delta 166/177 fused to tk promoter) | stimulation of CAT expression (in words) ([1]; wild-type GH enhancer fused to tk promoter) | T3 regulation of CAT expression (in words) [2] | CAT Activity (%) [3] [%] | DEX Binding (%) [4] [%]
N[C@@H](Cc1cc(I)c(Oc2ccc(O)c(I)c2)c(I)c1)C(=O)O [T3, 3,5,3′-triiodo-L-thyronine] | 4.6 | 2.6 | about 4 fold | 2.3 | 2.5 | 2.9 | five-fold | no effect | ninefold | abolished T3 regulation |  | 
hGR alpha: wild-type human glucocorticoid receptor, alpha form, 777 amino acids |  |  |  |  |  |  |  |  |  |  | 100 | 100
